US20250281503A1, “DO3A-BASED ANTITHROMBOTIC AGENT OR HEMOLYTIC AGENT CONTAINING GADOLINIUM COMPLEX” (ETNOVA THERAPEUTICS CORP., priority 2022, published 2025)

Test system: Rat platelets
Test: Platelet aggregation inhibition (4-channel platelet lumi-aggregometer)
Format: cell-based
Conditions: compound 100 μM, compared to control (vehicle), FIG. 2
Protocol: In order to evaluate the platelet aggregation activity of MBP-11902 according to Present Example 1 of the present disclosure, the platelet aggregation was activated in rat plasma with platelet aggregation factors and agonists, thrombin, collagen, ADP (adenosine diphosphate), U46619 (thromboxane A2 agonist), and PMA (phorbol-12-myristate-13-acetate), and then, the rat plasma was pretreated with vehicle (distilled water) and various doses (100, 300, and 500 μM) of MBP-11902, and then a 4-channel platelet lumi-aggregometer (Chronolog Corp, Havertown, PA) was used to measure the value indicating the platelet aggregation level, and the results are shown in FIG. 1. […]
Rat platelets were placed in HEPES-Tyrode buffer at a concentration of 3×10^8 cells/mL and pretreated with the vehicle (distilled water) and various doses (100, 300, and 500 μM) of MBP-11902 at 37° C. for 15 minutes, and then activated with collagen, thrombin, ADP, U46619 (endoperoxide/thromboxane analogs), and PMA (PKC activator), which are known as agonists in the platelet aggregation system. The platelet aggregation was induced at 1,000 rpm in a platelet aggregation system (Chronolog Corp, Havertown, PA) at 37° C. and then, the platelet aggregation level was measured.

`O=C(O)c1cc(-c2ccc(F)cc2F)ccc1O` [NSAID, Diflunisal] was tested, and the “platelet aggregation induced by collagen (comparative evaluation)” value (collagen 1 μg/mL) was “significantly inhibit” and the “platelet aggregation induced by thrombin (comparative evaluation)” value (thrombin 0.05 U/ml) was “significantly inhibit”.
